Assay results reported in patent publication US12357711B2, “PSMA binding dual mode radiotracer and therapeutic” (Technische Universität München, priority 2019, dated 2025).

System: SCID mice
Test: Preclinical dosimetry from biodistribution in mice, extrapolated to 70-kg Standard Adult (OLINDA/EXM 1.0)
Assay type: in vivo
Settings: […] bladder voiding interval
Description: 3-5 mice were injected per timepoint with a mean 25.6±3.6 MBq of 18F-rhPSMA-7 and 28.5±4.8 MBq of 18F-rhPSMA-7.3, respectively. Mice, severe combined immunodeficiency (SCID) were used for the experiments.
Mice were sacrificed at the following timepoints: • ^18F-rhPSMA-7: 10, 20, 40, 60, 120 and 180 minutes after administration. • ^18F-rhPSMA-7.3: 10, 60, 120, 180 and 300 minutes after administration.
Urine, blood, heart, lung, spleen, pancreas, liver, stomach (emptied), small intestine (emptied), large intestine (emptied), kidneys, bladder, testis, fat, muscle (partial, femoral), femur, tail and brain. Urine was collected with a pipette in the CO2 gas chamber. In case of missing urination in the chamber the bladder was aspirated with an insulin syringe. Blood was withdrawn instantly after sacrifice with an insulin syringe from the heart. All other tissues and organs were dissected and transferred directly in plastic containers.
The counting rates of measurement samples were automatically corrected for decay. The radioactivity distribution ratios (unit: percentage of the injected dose (% ID) in the measurement samples were determined using the equation below. The sum of the counting rates from all measurement samples obtained from one mouse was designated as the counting rate for administrated radioactivity.
The radioactivity distribution ratio per unit weight of the measurement sample (unit: % ID/g) excluding urine and feces samples was determined by using the equation below. The weight of the measurement sample was determined by subtraction of the empty measurement container from the container including the sample.
For consistency of statistical calculations for each radiotracer the same number of time-points for ^18F-rhPSMA-7 and ^18F-rhPSMA-7.3 was used. Therefore, for ^18F-rhPSMA-7 the 10 min and 20 min time points were combined creating a 15 min endpoint.
The time-integral of activity for the accumulation in the significant source organs (AUCs) were generated both with numerical integration and physical decay according to J Juan et al., Journal of Pharmaceutical Sciences, 1993, 82:762-763.
In brief, to calculate a human dosimetry from the biodistribution in the mice, an extrapolation was necessary to account for the differences between the animals and humans. Normal-organ radiation doses were estimated for the 70-kg Standard Adult anatomic model using time-depending organ activity concentrations (in percent of the injected dose per gram, % ID/g) and total-body activities measured in the biodistribution studies in mice.
Tissue activity concentrations in mice were converted to tissue fractional activities in the 70-kg Standard Adult using the relative fractional organ masses in the Standard Adult and the “standard” 25-gramm mouse. Time-dependent total-body activity was fit to an exponential function and the difference between the injected activity and the total-body activity was assumed to be excreted to the urine because activity concentrations in the liver and GI tracer were low at all time points studied.
Organ residence time was calculated by numerical integration using the trapezoidal rule and the rest-of-body ^18F residence times was calculated as the difference between the total-body residence time and the sum of the organ and urine residence times. The bladder contents residence time was estimated using the dynamic voiding model in the OLINDA/EXM 1.0 dosimetry software. Finally, the Standard Adult mean organ dose equivalents (in mSv/MBq) and effective dose (also in mSv/MBq) were then calculated using OLIN DA/EXM 1.0.
Final calculation of radiation absorbed dose and dosimetry from biodistribution in mice: The tissues or organs in which a significant accumulation of radioactivity occurs (i.e., source organ) were kidney, spleen, lung, liver and heart. With respect to activity accumulation and clearance, a rapid clearance from blood and clearance to urine but relatively slow build-up in kidney was found.

## [^19F][^natGa]D/L-Dap-R/S-DOTAGA-rhPSMA7 [rhPSMA7-rac]
  Adrenals ED Cont.: 3.90E−05 mSv/MBq
  Adrenals EDE Cont.: 0.00E000 mSv/MBq
  Adrenals dose Alpha: 0.00E000 mSv/MBq
  Adrenals dose Beta: 1.95E−03 mSv/MBq
  Adrenals dose Photon: 5.85E−03 mSv/MBq
  Adrenals dose Total: 7.80E−03 mSv/MBq
  Brain ED Cont.: 2.24E−05 mSv/MBq
  Brain EDE Cont.: 0.00E000 mSv/MBq
  Brain dose Alpha: 0.00E000 mSv/MBq
  Brain dose Beta: 1.95E−03 mSv/MBq
  Brain dose Photon: 2.54E−03 mSv/MBq
  Brain dose Total: 4.49E−03 mSv/MBq
  Breasts ED Cont.: 2.12E−04 mSv/MBq
  Breasts EDE Cont.: 6.36E−04 mSv/MBq
  Breasts dose Alpha: 0.00E000 mSv/MBq
  Breasts dose Beta: 1.95E−03 mSv/MBq
  Breasts dose Photon: 2.29E−03 mSv/MBq
  Breasts dose Total: 4.24E−03 mSv/MBq
  Gallbladder Wall ED Cont.: 0.00E000 mSv/MBq
  Gallbladder Wall EDE Cont.: 0.00E000 mSv/MBq
  Gallbladder Wall dose Alpha: 0.00E000 mSv/MBq
  Gallbladder Wall dose Beta: 1.95E−03 mSv/MBq
  Gallbladder Wall dose Photon: 5.54E−03 mSv/MBq
  Gallbladder Wall dose Total: 7.49E−03 mSv/MBq
  Heart Wall ED Cont.: 0.00E000 mSv/MBq
  Heart Wall EDE Cont.: 0.00E000 mSv/MBq
  Heart Wall dose Alpha: 0.00E000 mSv/MBq
  Heart Wall dose Beta: 8.82E−04 mSv/MBq
  Heart Wall dose Photon: 3.54E−03 mSv/MBq
  Heart Wall dose Total: 4.42E−03 mSv/MBq
  Kidneys ED Cont.: 3.25E−04 mSv/MBq
  Kidneys EDE Cont.: 3.91E−03 mSv/MBq
  Kidneys dose Alpha: 0.00E000 mSv/MBq
  Kidneys dose Beta: 4.70E−02 mSv/MBq
  Kidneys dose Photon: 1.80E−02 mSv/MBq
  Kidneys dose Total: 6.51E−02 mSv/MBq
  LLI Wall ED Cont.: 1.93E−03 mSv/MBq
  LLI Wall EDE Cont.: 9.66E−04 mSv/MBq
  LLI Wall dose Alpha: 0.00E000 mSv/MBq
  LLI Wall dose Beta: 1.95E−03 mSv/MBq
  LLI Wall dose Photon: 1.41E−02 mSv/MBq
  LLI Wall dose Total: 1.61E−02 mSv/MBq
  Liver ED Cont.: 2.13E−04 mSv/MBq
  Liver EDE Cont.: 0.00E000 mSv/MBq
  Liver dose Alpha: 0.00E000 mSv/MBq
  Liver dose Beta: 6.35E−04 mSv/MBq
  Liver dose Photon: 3.63E−03 mSv/MBq
  Liver dose Total: 4.27E−03 mSv/MBq
  Lungs ED Cont.: 5.16E−04 mSv/MBq
  Lungs EDE Cont.: 5.16E−04 mSv/MBq
  Lungs dose Alpha: 0.00E000 mSv/MBq
  Lungs dose Beta: 1.25E−03 mSv/MBq
  Lungs dose Photon: 3.04E−03 mSv/MBq
  Lungs dose Total: 4.30E−03 mSv/MBq
  Muscle ED Cont.: 3.84E−05 mSv/MBq
  Muscle EDE Cont.: 0.00E000 mSv/MBq
  Muscle dose Alpha: 0.00E000 mSv/MBq
  Muscle dose Beta: 1.95E−03 mSv/MBq
  Muscle dose Photon: 5.73E−03 mSv/MBq
  Muscle dose Total: 7.68E−03 mSv/MBq
  Osteogenic Cells ED Cont.: 8.93E−05 mSv/MBq
  Osteogenic Cells EDE Cont.: 2.68E−04 mSv/MBq
  Osteogenic Cells dose Alpha: 0.00E000 mSv/MBq
  Osteogenic Cells dose Beta: 4.18E−03 mSv/MBq
  Osteogenic Cells dose Photon: 4.75E−03 mSv/MBq
  Osteogenic Cells dose Total: 8.93E−03 mSv/MBq
  Ovaries ED Cont.: 3.09E−03 mSv/MBq
  Ovaries EDE Cont.: 3.87E−03 mSv/MBq
  Ovaries dose Alpha: 0.00E000 mSv/MBq
  Ovaries dose Beta: 1.95E−03 mSv/MBq
  Ovaries dose Photon: 1.35E−02 mSv/MBq
  Ovaries dose Total: 1.55E−02 mSv/MBq
  Pancreas ED Cont.: 4.04E−05 mSv/MBq
  Pancreas EDE Cont.: 0.00E000 mSv/MBq
  Pancreas dose Alpha: 0.00E000 mSv/MBq
  Pancreas dose Beta: 1.95E−03 mSv/MBq
  Pancreas dose Photon: 6.13E−03 mSv/MBq
  Pancreas dose Total: 8.08E−03 mSv/MBq
  Red Marrow ED Cont.: 8.16E−04 mSv/MBq
  Red Marrow EDE Cont.: 8.16E−04 mSv/MBq
  Red Marrow dose Alpha: 0.00E000 mSv/MBq
  Red Marrow dose Beta: 1.39E−03 mSv/MBq
  Red Marrow dose Photon: 5.41E−03 mSv/MBq
  Red Marrow dose Total: 6.80E−03 mSv/MBq
  Skin ED Cont.: 4.93E−05 mSv/MBq
  Skin EDE Cont.: 0.00E000 mSv/MBq
  Skin dose Alpha: 0.00E000 mSv/MBq
  Skin dose Beta: 1.95E−03 mSv/MBq
  Skin dose Photon: 2.98E−03 mSv/MBq
  Skin dose Total: 4.93E−03 mSv/MBq
  Small Intestine ED Cont.: 5.18E−05 mSv/MBq
  Small Intestine EDE Cont.: 0.00E000 mSv/MBq
  Small Intestine dose Alpha: 0.00E000 mSv/MBq
  Small Intestine dose Beta: 1.95E−03 mSv/MBq
  Small Intestine dose Photon: 8.40E−03 mSv/MBq
  Small Intestine dose Total: 1.04E−02 mSv/MBq
  Spleen ED Cont.: 1.30E−04 mSv/MBq
  Spleen EDE Cont.: 1.56E−03 mSv/MBq
  Spleen dose Alpha: 0.00E000 mSv/MBq
  Spleen dose Beta: 1.59E−02 mSv/MBq
  Spleen dose Photon: 1.01E−02 mSv/MBq
  Spleen dose Total: 2.61E−02 mSv/MBq
  Stomach Wall ED Cont.: 8.40E−04 mSv/MBq
  Stomach Wall EDE Cont.: 0.00E000 mSv/MBq
  Stomach Wall dose Alpha: 0.00E000 mSv/MBq
  Stomach Wall dose Beta: 1.95E−03 mSv/MBq
  Stomach Wall dose Photon: 5.05E−03 mSv/MBq
  Stomach Wall dose Total: 7.00E−03 mSv/MBq
  Testes ED Cont.: 0.00E000 mSv/MBq
  Testes EDE Cont.: 0.00E000 mSv/MBq
  Testes dose Alpha: 0.00E000 mSv/MBq
  Testes dose Beta: 1.95E−03 mSv/MBq
  Testes dose Photon: 9.69E−03 mSv/MBq
  Testes dose Total: 1.16E−02 mSv/MBq
  Thymus ED Cont.: 2.59E−05 mSv/MBq
  Thymus EDE Cont.: 0.00E000 mSv/MBq
  Thymus dose Alpha: 0.00E000 mSv/MBq
  Thymus dose Beta: 1.95E−03 mSv/MBq
  Thymus dose Photon: 3.24E−03 mSv/MBq
  Thymus dose Total: 5.18E−03 mSv/MBq
  Thyroid ED Cont.: 2.59E−04 mSv/MBq
  Thyroid EDE Cont.: 1.55E−04 mSv/MBq
  Thyroid dose Alpha: 0.00E000 mSv/MBq
  Thyroid dose Beta: 1.95E−03 mSv/MBq
  Thyroid dose Photon: 3.23E−03 mSv/MBq
  Thyroid dose Total: 5.18E−03 mSv/MBq
  Total Body ED Cont.: 0.00E000 mSv/MBq
  Total Body EDE Cont.: 0.00E000 mSv/MBq
  Total Body dose Alpha: 0.00E000 mSv/MBq
  Total Body dose Beta: 2.37E−03 mSv/MBq
  Total Body dose Photon: 5.39E−03 mSv/MBq
  Total Body dose Total: 7.77E−03 mSv/MBq
  ULI Wall ED Cont.: 4.63E−05 mSv/MBq
  ULI Wall EDE Cont.: 0.00E000 mSv/MBq
  ULI Wall dose Alpha: 0.00E000 mSv/MBq
  ULI Wall dose Beta: 1.95E−03 mSv/MBq
  ULI Wall dose Photon: 7.31E−03 mSv/MBq
  ULI Wall dose Total: 9.26E−03 mSv/MBq
  Urinary Bladder Wall ED Cont.: 1.77E−02 mSv/MBq
  Urinary Bladder Wall EDE Cont.: 2.12E−02 mSv/MBq
  Urinary Bladder Wall dose Alpha: 0.00E000 mSv/MBq
  Urinary Bladder Wall dose Beta: 2.45E−01 mSv/MBq
  Urinary Bladder Wall dose Photon: 1.08E−01 mSv/MBq
  Urinary Bladder Wall dose Total: 3.54E−01 mSv/MBq
  Uterus ED Cont.: 1.40E−04 mSv/MBq
  Uterus EDE Cont.: 1.68E−03 mSv/MBq
  Uterus dose Alpha: 0.00E000 mSv/MBq
  Uterus dose Beta: 1.95E−03 mSv/MBq
  Uterus dose Photon: 2.61E−02 mSv/MBq
  Uterus dose Total: 2.80E−02 mSv/MBq
